Assay results from patent publication US8859534B2, “2-carboxamide-7-piperazinyl-benzofuran derivatives” (AstraZeneca AB, priority 2009, dated 2014).

What was measured:
5-HT1A receptor = 5-HT1A receptor (Homo sapiens (Human), UniProt P08908); experiment: 5-HT1A receptor competition binding assay (SPA, [3H]-8-OH-DPAT); conditions: membranes of CHO cells expressing 5-HT1A receptors; radioligand [3H]-8-OH-DPAT 0.15-0.2 nM
Excerpt: (§1) Assays that were used to measure affinity of the compounds of the present invention for 5-HT1A and 5-HT1B receptors are described in J. Recept Signal Transduct. Res. 22:483-495 (2002) and Naunyn-Schmiedeberg's Arch Pharmacol. 356:328-334 (1997) and incorporated by reference herein. These assays were be used with some modifications:
(§2) For the binding assay stably transfected chinese hamster ovary (CHO) cell lines expressing 5-HT1A receptors or 5-HT1B receptors were harvested by centrifugation at 300×g for 10 min and resuspended in 10 mM Tris-HCl, 5 mM EDTA at pH 7.4. The cells were pooled, recentrifuged and resuspended before homogenisation using a Dounce homogeniser (“type B”). Cell membranes were centrifuged at 48 000×g for 10 min and then resuspended in harvesting buffer using an Ultra-Turrax T8 (IKA Labortechnik, Germany), aliquots were stored frozen in −70° C.
Frozen membrane preparations were thawed, homogenized with an Ultra-Turrax and mixed with SPA beads (YSI coated WGA, GE Healthcare/Amersham, Buckinghamshire, UK) in assay buffer containing 50 mM Tris-Base, 4 mM MgCl2, 4 mM CaCl2 (only 5-HT1B), 1 mM EDTA, and adjusted to pH 7.4 with HCl. […] The binding assays were performed in 384-well plates in a final volume of 90 μL/well with the following additions: 9 μL binding buffer; 1 μL compound/DMSO/nonspecific; 20 μL radioligand; and 60 μL beads/membrane mixture. Non-specific binding was defined by using 10 μM WAY100635 for 5-HT1A and 10 μM Methiothepin for 5-HT1B. The assay plates were incubated for 4 hours where after the plates are counted in a Wallac 1450 Microbeta Trilux counter (PerkinElmer LifeScience, US) or similar. Data from the experiments were analyzed using a four parameter logistic equation as follows: Y=Bottom+(Top-Bottom)/1+10^(LogEC50-X)nH.

5-HT1B receptor = 5-HT1B receptor (Homo sapiens (Human), UniProt P28222); experiment: 5-HT1B receptor competition binding assay (SPA, [3H]-GR125743); conditions: membranes of CHO cells expressing 5-HT1B receptors; radioligand [3H]-GR125743 0.15-0.2 nM
Excerpt: as §1, §2
Frozen membrane preparations were thawed, homogenized with an Ultra-Turrax and mixed with SPA beads (YSI coated WGA, GE Healthcare/Amersham, Buckinghamshire, UK) in assay buffer containing 50 mM Tris-Base, 4 mM MgCl2, 4 mM CaCl2 (only 5-HT1B), 1 mM EDTA, and adjusted to pH 7.4 with HCl. The beads/membrane solution, final concentration 100 pM receptors for 5-HT1A, 300 pM receptors for 5-HT1B and 0.5 mg SPA beads/well, was pre-incubated in room temperature with stirring for 30-60 min. […] Five (log interval, 10 μM to 1 nM, final concentration) or ten serial dilutions (½-log interval, 10 μM to 0.32 nM, final concentration) of compounds were prepared in DMSO from 10 mM stock solutions. The binding assays were performed in 384-well plates in a final volume of 90 μL/well with the following additions: 9 μL binding buffer; 1 μL compound/DMSO/nonspecific; 20 μL radioligand; and 60 μL beads/membrane mixture. Non-specific binding was defined by using 10 μM WAY100635 for 5-HT1A and 10 μM Methiothepin for 5-HT1B. The assay plates were incubated for 4 hours where after the plates are counted in a Wallac 1450 Microbeta Trilux counter (PerkinElmer LifeScience, US) or similar. Data from the experiments were analyzed using a four parameter logistic equation as follows: Y=Bottom+(Top-Bottom)/1+10^(LogEC50-X)nH.
• Jerning E., Rosqvist S., Mohell N. (2002) NAD-299 antagonises 5-HT-stimulated and Spiperone-inhibited [^35S]GTPγS binding in cloned 5-HT1A receptors. J Recept Signal Transduct Res 22:483-495. • Doménech T., Beleta J., Palacios J. M. (1997) Characterization of human serotonin 1D and 1B receptors using [^3H]-GR-125743, a novel radiolabelled serotonin 5HT1D/1B receptor antagonist. Naunyn-Schmiedeberg's Arch Pharmacol 356:328-334.

Sequence of 5-HT1A receptor (P08908 whole entry): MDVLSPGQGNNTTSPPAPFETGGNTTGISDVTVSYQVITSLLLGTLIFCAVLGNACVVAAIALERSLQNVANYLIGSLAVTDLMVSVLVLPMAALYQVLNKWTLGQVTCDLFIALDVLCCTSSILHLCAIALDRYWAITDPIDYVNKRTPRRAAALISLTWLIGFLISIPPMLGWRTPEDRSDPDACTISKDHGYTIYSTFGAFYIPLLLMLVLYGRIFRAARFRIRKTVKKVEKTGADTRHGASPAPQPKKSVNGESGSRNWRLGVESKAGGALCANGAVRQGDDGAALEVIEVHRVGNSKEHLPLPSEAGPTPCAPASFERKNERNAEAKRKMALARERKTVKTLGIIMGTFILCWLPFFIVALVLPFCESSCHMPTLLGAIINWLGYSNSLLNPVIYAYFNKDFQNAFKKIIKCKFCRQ
Sequence of 5-HT1B receptor (P28222 whole entry): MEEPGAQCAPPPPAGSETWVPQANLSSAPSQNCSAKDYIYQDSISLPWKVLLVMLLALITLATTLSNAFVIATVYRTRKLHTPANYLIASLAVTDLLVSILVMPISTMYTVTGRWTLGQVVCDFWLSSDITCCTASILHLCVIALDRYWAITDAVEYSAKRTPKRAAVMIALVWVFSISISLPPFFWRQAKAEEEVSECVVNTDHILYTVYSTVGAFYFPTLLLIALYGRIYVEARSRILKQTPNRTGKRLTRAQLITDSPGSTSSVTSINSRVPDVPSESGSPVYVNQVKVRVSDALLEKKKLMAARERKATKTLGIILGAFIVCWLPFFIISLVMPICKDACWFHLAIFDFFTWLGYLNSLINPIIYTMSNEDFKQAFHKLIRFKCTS

Ki (5-HT1A receptor): 0.35 nM
Ki (5-HT1B receptor): 11 nM
SMILES: CN(C)C(=O)c1cc2c(Br)ccc(N3CCN(CCc4ccccn4)CC3)c2o1 [Example 53, 4-Bromo-N,N-dimethyl-7-(4-(2-(pyridin-2-yl)ethyl)piperazin-1-yl)benzofuran-2-carboxamide]
